Measured values reported in BindingDB's records for doi:10.7270/Q22F7KMG (Eli Lilly, 1995).

Tests used:
[1] = target: T1, Dimer of Gag-Pol polyprotein [489-587] (Human immunodeficiency virus 1, UniProt P12497); assay: Protease Inhibition Assay; details: pH 5.5; 22 °C
T1 construct: 489-587
From the text: (§1) In the presence of HIV-l protease, the substrate is rapidly cleaved into two parts. The biotinylated amino terminal fragment binds to the avidin Pandex beads while the FITC-containing carboxy1 terminal fragment is removed through the membrane.

[2] = target: T2, Gag-Pol polyprotein [489-587] (Human immunodeficiency virus 1, UniProt P04585); assay: Protease Inhibition Assay
T2 construct: 489-587
From the text: as §1

Row | SMILES | IC50 [1] | IC50 [2]
1 | CC(C)CN(C[C@@H](O)[C@H](Cc1ccccc1)NC(=O)[C@@H](CSc1ccc2ccccc2c1)NS(C)(=O)=O)C(=O)NC(C)(C)C [(2S)-N-[(2S,3R)-4-[(tert-butylcarbamoyl)(2-methylpropyl)amino]-3-hydroxy-1-phenylbutan-2-yl]-2-methanesulfonamido-3-(naphthalen-2-ylsulfanyl)propanamide] | 50 nM | 50 nM
2 | CC(=O)N[C@H](CSCc1ccccc1)C(=O)N[C@@H](Cc1ccccc1)[C@H](O)CN1C[C@H]2CCCC[C@H]2C[C@H]1C(=O)NC(C)(C)C [(3S,4aS,8aS)-2-[(2R,3S)-3-[(2S)-3-(benzylsulfanyl)-2-acetamidopropanamido]-2-hydroxy-4-phenylbutyl]-N-tert-butyl-decahydroisoquinoline-3-carboxamide] | 6 nM | 6 nM
3 | CC(=O)N[C@H](CS(=O)(=O)c1cccc2cccnc12)C(=O)N[C@@H](Cc1ccccc1)[C@H](O)CN1C[C@H]2CCCC[C@H]2C[C@H]1C(=O)NC(C)(C)C [(3S,4aS,8aS)-N-tert-butyl-2-[(2R,3S)-3-[(2S)-2-acetamido-3-(quinoline-8-sulfonyl)propanamido]-2-hydroxy-4-phenylbutyl]-decahydroisoquinoline-3-carboxamide] | 1.7 nM | 1.7 nM
4 | CC(C)(C)NC(=O)[C@@H]1C[C@@H]2SCC[C@@H]2CN1C[C@@H](O)[C@H](Cc1ccccc1)NC(=O)[C@@H](CS(=O)(=O)c1cccc2cccnc12)NC(=O)C(F)(F)F [(3aR,6S,7aS)-N-tert-butyl-5-[(2R,3S)-2-hydroxy-4-phenyl-3-[(2S)-3-(quinoline-8-sulfonyl)-2-(2,2,2-trifluoroacetamido)propanamido]butyl]-octahydrothieno[3,2-c]pyridine-6-carboxamide] | 0.21 nM | 0.21 nM
5 | CC(C)(C)NC(=O)[C@@H]1C[C@@H]2CCCC[C@@H]2CN1C[C@@H](O)[C@H](Cc1ccccc1)NC(=O)[C@@H](CSc1ccc(F)cc1)NS(C)(=O)=O [(3S,4aS,8aS)-N-tert-butyl-2-[(2R,3S)-3-[(2S)-3-[(4-fluorophenyl)sulfanyl]-2-methanesulfonamidopropanamido]-2-hydroxy-4-phenylbutyl]-decahydroisoquinoline-3-carboxamide] | 24 nM | 24 nM
6 | CC(C)(C)NC(=O)[C@@H]1C[C@@H]2CCCC[C@@H]2CN1C[C@@H](O)[C@H](Cc1ccccc1)NC(=O)[C@@H](C[S+]([O-])c1ccc2ccccc2c1)NS(C)(=O)=O (some centres not stated) | 0.4 nM | 0.4 nM
7 | CC(C)(C)NC(=O)[C@@H]1C[C@@H]2CCCC[C@@H]2CN1C[C@@H](O)[C@H](Cc1ccccc1)NC(=O)[C@@H](CS(=O)(=O)c1ccc(F)cc1)NS(C)(=O)=O [Saquinavir/Nelfinavir deriv.] | 2 nM | 2 nM
8 | CC(=O)N[C@H](CS(=O)(=O)c1ccc(F)cc1)C(=O)N[C@@H](CSc1ccccc1)[C@H](O)CN1C[C@H]2CCS[C@H]2C[C@H]1C(=O)NC(C)(C)C [(3aR,6S,7aS)-N-tert-butyl-5-[(2R,3R)-3-[(2S)-2-acetamido-3-[(4-fluorobenzene)sulfonyl]propanamido]-2-hydroxy-4-(phenylsulfanyl)butyl]-octahydrothieno[3,2-c]pyridine-6-carboxamide] | 1.8 nM | 1.8 nM
9 | CC(C)(C)NC(=O)[C@@H]1C[C@@H]2SCC[C@@H]2CN1C[C@@H](O)[C@H](CSc1ccccc1)NC(=O)[C@@H](CS(=O)(=O)c1ccc(F)cc1)NC(=O)C(F)(F)F [(3aR,6S,7aS)-N-tert-butyl-5-[(2R,3R)-3-[(2S)-3-[(4-fluorobenzene)sulfonyl]-2-(2,2,2-trifluoroacetamido)propanamido]-2-hydroxy-4-(phenylsulfanyl)butyl]-octahydrothieno[3,2-c]pyridine-6-carboxamide] | 10 nM | 10 nM
10 | CC(C)CN(C[C@@H](O)[C@H](Cc1ccccc1)NC(=O)[C@@H](C[S+]([O-])c1ccc2ccccc2c1)NS(C)(=O)=O)C(=O)NC(C)(C)C (stereo partly drawn) [(2S)-N-[(2S,3R)-4-[(tert-butylcarbamoyl)(2-methylpropyl)amino]-3-hydroxy-1-phenylbutan-2-yl]-2-methanesulfonamido-3-(naphthalene-2-sulfinyl)propanamide] | 2.1 nM | 2.1 nM
11 | CC(C)CN(C[C@@H](O)[C@H](Cc1ccccc1)NC(=O)[C@@H](CS(=O)(=O)c1ccc(F)cc1)NS(C)(=O)=O)C(=O)NC(C)(C)C [(2S)-N-[(2S,3R)-4-[(tert-butylcarbamoyl)(2-methylpropyl)amino]-3-hydroxy-1-phenylbutan-2-yl]-3-[(4-fluorobenzene)sulfonyl]-2-methanesulfonamidopropanamide] | 10 nM | 10 nM
12 | CC(C)(C)NC(=O)[C@@H]1C[C@@H]2SCC[C@@H]2CN1C[C@@H](O)[C@H](Cc1ccccc1)NC(=O)[C@@H](CS(=O)(=O)c1ccc(F)cc1)NS(C)(=O)=O [(3aR,6S,7aS)-N-tert-butyl-5-[(2R,3S)-3-[(2S)-3-[(4-fluorobenzene)sulfonyl]-2-methanesulfonamidopropanamido]-2-hydroxy-4-phenylbutyl]-octahydrothieno[3,2-c]pyridine-6-carboxamide] | 0.22 nM | 0.22 nM
13 | CC(=O)N[C@H](CS(=O)(=O)c1cccc2cccnc12)C(=O)N[C@@H](Cc1ccccc1)[C@H](O)CN1C[C@H]2CCS[C@H]2C[C@H]1C(=O)NC(C)(C)C [(3aR,6S,7aS)-N-tert-butyl-5-[(2R,3S)-3-[(2S)-2-acetamido-3-(quinoline-8-sulfonyl)propanamido]-2-hydroxy-4-phenylbutyl]-octahydrothieno[3,2-c]pyridine-6-carboxamide] | 0.42 nM | 0.42 nM
14 | CC(C)(C)NC(=O)[C@@H]1C[C@@H]2CCCC[C@@H]2CN1C[C@@H](O)[C@H](Cc1ccccc1)NC(=O)[C@@H](C[S+]([O-])c1ccc(F)cc1)NS(C)(=O)=O (stereo partly drawn) [(3S,4aS,8aS)-N-tert-butyl-2-[(2R,3S)-3-[(2S)-3-[(4-fluorobenzene)sulfinyl]-2-methanesulfonamidopropanamido]-2-hydroxy-4-phenylbutyl]-decahydroisoquinoline-3-carboxamide] | 0.6 nM | 0.6 nM
15 | CC(C)(C)NC(=O)[C@@H]1C[C@@H]2CCCC[C@@H]2CN1C[C@@H](O)[C@H](Cc1ccccc1)NC(=O)[C@@H](CS(=O)(=O)c1ccc2ccccc2c1)NS(C)(=O)=O [(3S,4aS,8aS)-N-tert-butyl-2-[(2R,3S)-2-hydroxy-3-[(2S)-2-methanesulfonamido-3-(naphthalene-2-sulfonyl)propanamido]-4-phenylbutyl]-decahydroisoquinoline-3-carboxamide] | 0.5 nM | 0.5 nM
16 | CC(=O)N[C@H](CS(=O)(=O)c1ccc2ccccc2c1)C(=O)N[C@@H](Cc1ccccc1)[C@H](O)CN1C[C@H]2CCS[C@H]2C[C@H]1C(=O)NC(C)(C)C [(3aR,6S,7aS)-N-tert-butyl-5-[(2R,3S)-3-[(2S)-2-acetamido-3-(naphthalene-2-sulfonyl)propanamido]-2-hydroxy-4-phenylbutyl]-octahydrothieno[3,2-c]pyridine-6-carboxamide] | 0.5 nM | 0.5 nM
17 | CC(C)(C)NC(=O)[C@@H]1C[C@@H]2CCCC[C@@H]2CN1C[C@@H](O)[C@H](Cc1ccccc1)NC(=O)[C@@H](CSc1ccc2ccccc2c1)NS(C)(=O)=O [(3S,4aS,8aS)-N-tert-butyl-2-[(2R,3S)-2-hydroxy-3-[(2S)-2-methanesulfonamido-3-(naphthalen-2-ylsulfanyl)propanamido]-4-phenylbutyl]-decahydroisoquinoline-3-carboxamide] | 5.1 nM | 5.1 nM
18 | CC(C)(C)NC(=O)[C@@H]1C[C@@H]2SCC[C@@H]2CN1C[C@@H](O)[C@H](CSc1ccccc1)NC(=O)[C@@H](CS(=O)(=O)c1ccc2ccccc2c1)NC(=O)C(F)(F)F [(3aR,6S,7aS)-N-tert-butyl-5-[(2R,3R)-2-hydroxy-3-[(2S)-3-(naphthalene-2-sulfonyl)-2-(2,2,2-trifluoroacetamido)propanamido]-4-(phenylsulfanyl)butyl]-octahydrothieno[3,2-c]pyridine-6-carboxamide] | 1.8 nM | 1.8 nM
19 | CC(C)(C)NC(=O)[C@@H]1C[C@@H]2SCC[C@@H]2CN1C[C@@H](O)[C@H](Cc1ccccc1)NC(=O)[C@@H](CS(=O)(=O)c1cccc2cccnc12)NS(C)(=O)=O [(3aR,6S,7aS)-N-tert-butyl-5-[(2R,3S)-2-hydroxy-3-[(2S)-2-methanesulfonamido-3-(quinoline-8-sulfonyl)propanamido]-4-phenylbutyl]-octahydrothieno[3,2-c]pyridine-6-carboxamide] | 0.71 nM | 0.71 nM
20 | CC(C)CN(C[C@@H](O)[C@H](Cc1ccccc1)NC(=O)[C@@H](CSc1ccc(F)cc1)NS(C)(=O)=O)C(=O)NC(C)(C)C [(2S)-N-[(2S,3R)-4-[(tert-butylcarbamoyl)(2-methylpropyl)amino]-3-hydroxy-1-phenylbutan-2-yl]-3-[(4-fluorophenyl)sulfanyl]-2-methanesulfonamidopropanamide] | 85 nM | 85 nM
21 | CC(=O)N[C@H](CS(=O)(=O)c1ccc2ccccc2c1)C(=O)N[C@@H](Cc1ccccc1)[C@H](O)CN1C[C@H]2CCCC[C@H]2C[C@H]1C(=O)NC(C)(C)C [(3S,4aS,8aS)-N-tert-butyl-2-[(2R,3S)-3-[(2S)-2-acetamido-3-(naphthalene-2-sulfonyl)propanamido]-2-hydroxy-4-phenylbutyl]-decahydroisoquinoline-3-carboxamide] | 1.6 nM | 1.6 nM
